Molecules are shown by their SMILES. Some results are limits rather than exact numbers.

The first experiment concerns the target T1, sodium-proton exchanger of subtype 3 (NHE3) (Homo sapiens, UniProt P48764).
T1 construct: expressed in transfected cells
T1 sequence (P48764 26-834): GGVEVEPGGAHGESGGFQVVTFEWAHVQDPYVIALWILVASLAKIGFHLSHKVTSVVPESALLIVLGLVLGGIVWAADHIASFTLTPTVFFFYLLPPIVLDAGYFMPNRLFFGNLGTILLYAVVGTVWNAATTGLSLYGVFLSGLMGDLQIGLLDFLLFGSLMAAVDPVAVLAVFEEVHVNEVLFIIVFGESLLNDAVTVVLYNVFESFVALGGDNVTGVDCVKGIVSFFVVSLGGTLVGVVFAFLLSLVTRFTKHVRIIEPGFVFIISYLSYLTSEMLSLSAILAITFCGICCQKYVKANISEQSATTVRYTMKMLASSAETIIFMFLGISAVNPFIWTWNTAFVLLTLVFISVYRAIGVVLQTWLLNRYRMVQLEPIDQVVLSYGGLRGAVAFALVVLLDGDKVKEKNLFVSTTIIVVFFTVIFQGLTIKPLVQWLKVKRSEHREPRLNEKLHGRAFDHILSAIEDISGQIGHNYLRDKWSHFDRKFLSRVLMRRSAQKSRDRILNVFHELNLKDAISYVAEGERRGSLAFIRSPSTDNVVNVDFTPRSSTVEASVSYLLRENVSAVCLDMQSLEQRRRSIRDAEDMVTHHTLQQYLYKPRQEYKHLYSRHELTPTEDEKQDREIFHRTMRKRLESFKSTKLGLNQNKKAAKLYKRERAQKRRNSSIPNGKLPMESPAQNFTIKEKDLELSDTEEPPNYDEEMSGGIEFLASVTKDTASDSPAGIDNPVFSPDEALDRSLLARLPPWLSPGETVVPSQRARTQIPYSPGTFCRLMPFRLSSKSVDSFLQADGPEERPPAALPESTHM
Nature of the experiment: Recovery of intracellular pH (pHi) after acidification in LAP1 cells stably expressing NHE3 (BCECF fluorescence, FLIPR). The settings on record: Activity range (inhibitory effect on NHE3), LAP1 cells stably expressing NHE3; pH recovery after acidification; range 1 is % inhibition at 10 μM. Type of experiment: cell-based.
In turn, `CN(C)S(=O)(=O)c1ccc(O[C@@H]2c3ccccc3C[C@H]2N2CCCC2)c(Cl)c1Cl` (racemic) [Example 362, 2,3-dichloro-N,N-dimethyl-4-(rac-trans-(1,2)-2-pyrrolidin-1-ylindan-1-yloxy)benzenesulfonamide] came in with an IC50 of less than 1 µM.

Still in this experiment, the particulars now being: LAP1 cells stably expressing NHE3; pH recovery after acidification; range 1 is % inhibition at 10 μM; read-out: Activity range (inhibitory effect on NHE3).
As for `N[C@@H]1CCCN([C@H]2CCc3ccccc3[C@@H]2Oc2ccc(F)cc2-c2ccno2)C1` (racemic) [Example 68, (R)-1-[rac-trans-(1,2)-1-(4-fluoro-2-isoxazol-5-ylphenoxy)-1,2,3,4-tetrahydronaphthalen-2-yl]piperidin-3-ylamine], the inhibition at 10 µM is 20 to 50%.

Take `N#Cc1ccc(CO[C@H]2c3cc(Cl)cc(Cl)c3C[C@@H]2N2CC[C@@H](O)C2)c(F)c1` [Example 482, 4-[(1S,2S)-4,6-dichloro-2-((R)-3-hydroxypyrrolidin-1-yl)indan-1-yloxymethyl]-3-fluorobenzonitrile]: the inhibition at 10 µM lay in the range of 20 to 50%.

`NCC1CCN([C@@H]2Cc3ccccc3[C@H]2Oc2cccc3[nH]ccc23)C1` (mixture of isomers) [Example 601, C-{1-[rac-trans-(1,2)-1-(1H-indol-4-yloxy)indan-2-yl]pyrrolidin-3-yl}methylamine]: the IC50 lay within 1 to 10 µM.

Consider `c1ccc2c(c1)C[C@@H](N1C[C@H]3CNC[C@H]3C1)[C@@H]2Oc1ccc2cc[nH]c2c1` (racemic) [Example 587, 6-[rac-trans-(1,2)-2-(Hexahydropyrrolo[3,4-c]pyrrol-2-yl)indan-1-yloxy]-1H-indole], for which the IC50 fell in the range of 1 to 10 µM.

In the case of `O=C1CCc2c(cccc2O[C@H]2c3cc(Cl)cc(Cl)c3C[C@@H]2N2CC[C@@H](O)C2)N1` [Example 574, 5-[(1S,2S)-4,6-dichloro-2-((R)-3-hydroxypyrrolidin-1-yl)indan-1-yloxy]-3,4-dihydro-1H-quinolin-2-one], the IC50 was in the range of 1 to 10 µM.

For the molecule `CC1(C)NC(=O)N(c2ccc(F)c(O[C@H]3c4cc(Cl)cc(Cl)c4C[C@@H]3N3CC[C@@H](O)C3)c2)C1=O` [Example 416, 3-{3-[(1S,2S)-4,6-dichloro-2-((R)-3-hydroxypyrrolidin-1-yl)indan-1-yloxy]-4-fluorophenyl}-5,5-dimethylimidazolidine-2,4-dione], the IC50 was in the range of 1 to 10 µM.

`N[C@H]1CCCN([C@H]2CCc3ccccc3[C@@H]2Oc2ccc(NC(=O)OCc3ccccc3)cc2)C1` (racemic) [Example 239, {4-[rac-trans-(1,2)-2-((S)-3-aminopiperidin-1-yl)-1,2,3,4-tetrahydronaphthalen-1-yloxy]phenyl}carbamic acid benzyl ester]: the inhibition at 10 µM was in the range of 20 to 50%.

As for `NCC1CCN([C@@H]2Cc3ccccc3[C@H]2Oc2ccc(C(N)=O)cc2)CC1` (racemic) [Example 548, 4-[rac-trans-(1,2)-2-(4-aminomethylpiperidin-1-yl)indan-1-yloxy]benzamide], the IC50 was 1 to 10 µM.

Take `N[C@@H]1CCCN([C@H]2CCc3ccccc3[C@@H]2Oc2cccc(OC(F)F)c2)C1` (racemic) [Example 56, (R)-1-[rac-trans-(1,2)-1-(3-difluoromethoxyphenoxy)-1,2,3,4-tetrahydronaphthalen-2-yl]piperidin-3-ylamine]: the inhibition at 10 µM fell in the range of 20 to 50%.

For the molecule `N#Cc1ccc(O[C@H]2c3cc(Cl)cc(Cl)c3C[C@@H]2N2CCC[C@@H](N)C2)c(F)c1` [Example 479, 4-[(1S,2S)-2-((R)-3-aminopiperidin-1-yl)-4,6-dichloroindan-1-yloxy]-3-fluorobenzonitrile], the IC50 was less than 1 µM.

Turning to `NCC1CCN([C@@H]2Cc3ccccc3[C@H]2Oc2cccc(N3CCNCC3)c2)C1` (mixture of isomers) [Example 617, C-{1-[rac-trans-(1,2)-1-(3-piperazin-1-ylphenoxy)indan-2-yl]pyrrolidin-3-yl}methylamine], the IC50 was 1 to 10 µM.

On to `CN(C)[C@@H]1CCCN([C@H]2Cc3c(Cl)cc(Cl)cc3[C@@H]2Oc2ccc(S(C)(=O)=O)cc2)C1` [Example 224, {(R)-1-[trans-(1S,2S)-4,6-dichloro-1-(4-methanesulfonylphenoxy)indan-2-yl]piperidin-3-yl}-dimethylamine], for which the IC50 is less than 1 µM.

Regarding `COc1cc(Cl)ccc1O[C@H]1c2ccccc2CC[C@@H]1N1CCC[C@H](N)C1` (racemic) [Example 174, (S)-1-[rac-trans-(1,2)-1-(4-chloro-2-methoxyphenoxy)-1,2,3,4-tetrahydronaphthalen-2-yl]piperidin-3-ylamine], the inhibition at 10 µM lay within 20 to 50%.

`CN(c1ccc(F)c(O[C@H]2c3cc(Cl)cc(F)c3C[C@@H]2N2CC[C@@H](O)C2)c1)S(C)(=O)=O` [Example 673, N-{3-[(1S,2S)-6-chloro-4-fluoro-2-((R)-3-hydroxypyrrolidin-1-yl)indan-1-yloxy]-4-fluorophenyl}-N-methyl-methanesulfonamide]: the IC50 was in the range of 1 to 10 µM.

For the molecule `COC(=O)c1ccc(O[C@H]2c3cc(Cl)ccc3C[C@@H]2N2CC[C@@H](O)C2)c(Cl)c1` [Example 446, 3-chloro-4-[trans-(1S,2S)-6-chloro-2-((R)-3-hydroxypyrrolidin-1-yl)indan-1-yloxy]benzoic acid methyl ester], the inhibition at 10 µM was 20 to 50%.

`CN(C)Cc1ccc(O[C@H]2c3ccccc3CC[C@@H]2N2CCC[C@H](N)C2)cc1` (racemic) [Example 177, (S)-1-[rac-trans-(1,2)-1-(4-dimethylaminomethylphenoxy)-1,2,3,4-tetrahydronaphthalen-2-yl]piperidin-3-ylamine]: the inhibition at 10 µM lay in the range of 20 to 50%.

Regarding `N[C@H]1CCCN([C@H]2CCc3ccccc3[C@@H]2Oc2ccc(F)c3cccnc23)C1` (racemic) [Example 188, (S)-1-[rac-trans-(1,2)-1-(5-fluoroquinolin-8-yloxy)-1,2,3,4-tetrahydronaphthalen-2-yl]piperidin-3-ylamine], the IC50 lay within 1 to 10 µM.

As for `Cc1nnc(C)n1-c1ccc(O[C@H]2c3cc(Cl)cc(Cl)c3C[C@@H]2N2CC[C@@H](O)C2)cc1` [Example 133, (R)-1-{trans-(1S,2S)-4,6-dichloro-1-[4-(3,5-dimethyl-[1,2,4]triazol-4-yl)phenoxy]indan-2-yl}pyrrolidin-3-ol], the IC50 was less than 1 µM.

In the case of `CN(CCO)[C@H]1Cc2c(Cl)cc(Cl)cc2[C@@H]1Oc1ccc(S(C)(=O)=O)cc1` [Example 702, 2-{[trans-(1S,2S)-4,6-Dichloro-1-(4-methanesulfonyl-phenoxy)-indan-2-yl]-methyl-amino}-ethanol], the IC50 is less than 1 µM.

On to `Clc1cnccc1O[C@H]1c2ccccc2C[C@@H]1CN1CCCC1` (racemic) [Example 443, 3-chloro-4-(2-pyrrolidin-1-ylmethylindan-1-yloxy)pyridine], for which the inhibition at 10 µM lay in the range of 20 to 50%.

Regarding `Cc1nnc(C)n1-c1ccc(O[C@H]2c3cc(Cl)ccc3C[C@@H]2N2CC[C@@H](O)C2)cc1` [Example 145, (R)-1-{trans-(1S,2S)-6-chloro-1-[4-(3,5-dimethyl-[1,2,4]triazol-4-yl)phenoxy]indan-2-yl}pyrrolidin-3-ol], the IC50 was less than 1 µM.

With `c1cc(O[C@@H]2c3ccccc3C[C@H]2N2C[C@H]3CNC[C@H]3C2)cc(N2CCCCC2)c1` (racemic) [Example 15, 2-[rac-trans-(1,2)-1-(3-piperidin-1-ylphenoxy)indan-2-yl]octahydropyrrolo[3,4-c]pyrrole], the IC50 lay in the range of 1 to 10 µM.

With `CCc1nc(C)cn1-c1ccc(O[C@H]2c3cc(Cl)cc(F)c3C[C@@H]2N2CC[C@@H](O)C2)cc1` [Example 719, (R)-1-{trans-(1S,2S)-6-Chloro-1-[4-(2-ethyl-4-methyl-imidazol-1-yl)-phenoxy]-4-fluoro-indan-2-yl}-pyrrolidin-3-ol], the IC50 was 1 to 10 µM.

Take `N[C@@H]1CCCN([C@H]2CCc3ccccc3[C@@H]2Oc2ccnc(Cl)c2)C1` (racemic) [Example 40, (R)-1-[rac-trans-(1,2)-1-(2-chloropyridin-4-yloxy)-1,2,3,4-tetrahydronaphthalen-2-yl]piperidin-3-ylamine]: the inhibition at 10 µM was 20 to 50%.

Regarding `Cc1nnc(C)n1-c1ccc(O[C@H]2c3cc(Cl)cc(Cl)c3C[C@@H]2N2CCS(=O)(=O)CC2)c(F)c1` [Example 565, 4-{trans-(1S,2S)-4,6-dichloro-1-[4-(3,5-dimethyl-[1,2,4]triazol-4-yl)-2-fluorophenoxy]indan-2-yl}thiomorpholine 1,1-dioxide], the IC50 was less than 1 µM.

Turning to `Cc1nnc(C)n1-c1ccc(O[C@H]2c3ccccc3C[C@@H]2N2CCC[C@@H](N)C2)cc1` [Example 121, (R)-1-{trans-(1S,2S)-1-[4-(3,5-dimethyl-[1,2,4]triazol-4-yl)phenoxy]indan-2-yl}piperidin-3-ylamine], the IC50 fell in the range of 1 to 10 µM.

In the case of `COc1cccc(F)c1O[C@@H]1c2cc(Cl)cc(Cl)c2C[C@H]1N1CCC[C@@H](N)C1` [Example 94, (R)-1-[trans-(1R,2R)-4,6-dichloro-1-(2-fluoro-6-methoxyphenoxy)indan-2-yl]piperidin-3-ylamine], the inhibition at 10 µM is 20 to 50%.

Source of the values: patent US8822449B2, “Substituted aminoindanes and analogs thereof, and the pharmaceutical use thereof” (Sanofi, priority 2008, dated 2014).
